The text below walks through data of patent publication US20230295157A1, “3-(1H-IMIDAZOL-2-YL)-2,3,8,8A-TETRAHYDROINDOLIZIN-5(1H)-ONE DERIVATIVES USEFUL AS FACTOR XIA INHIBITORS” (JANSSEN PHARMACEUTICA NV, priority 2020, published 2023).

The term pIC50 denotes −log10 of the IC50, conventionally taken in molar units.

One assay deals with Factor XIa (Homo sapiens (Human), UniProt P03951). Kind of assay: Factor XIa inhibition assay (FLINT) utilizing a fluorophore-quencher pair peptide substrate. The format is biochemical. Particulars: 30 min preincubation, kinetic reads over 30 min, read-out: FXIa Kin Inh IC50. Summed up: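 FXIa ([…]) preincubated 30 min with compound (11-point 3-fold dilution, top 100 nM, 2% DMSO), then 15 μM quenched FXI Arg146-based peptide added; Tris pH 7.5, CaCl2, BSA, CHAPS. Fluorescence 485/520 nm read kinetically every 5 min over 30 min at RT; IC50 by 4-parameter fit.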
Sequence of Factor XIa (P03951 388-625): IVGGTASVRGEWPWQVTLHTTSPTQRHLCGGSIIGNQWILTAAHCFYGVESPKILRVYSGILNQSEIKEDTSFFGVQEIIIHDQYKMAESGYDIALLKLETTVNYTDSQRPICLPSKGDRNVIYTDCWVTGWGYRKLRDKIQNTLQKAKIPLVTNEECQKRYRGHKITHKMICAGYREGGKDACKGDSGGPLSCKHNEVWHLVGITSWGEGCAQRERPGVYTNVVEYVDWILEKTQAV
Sequence of Factor XIa (P03951 19-387 partner): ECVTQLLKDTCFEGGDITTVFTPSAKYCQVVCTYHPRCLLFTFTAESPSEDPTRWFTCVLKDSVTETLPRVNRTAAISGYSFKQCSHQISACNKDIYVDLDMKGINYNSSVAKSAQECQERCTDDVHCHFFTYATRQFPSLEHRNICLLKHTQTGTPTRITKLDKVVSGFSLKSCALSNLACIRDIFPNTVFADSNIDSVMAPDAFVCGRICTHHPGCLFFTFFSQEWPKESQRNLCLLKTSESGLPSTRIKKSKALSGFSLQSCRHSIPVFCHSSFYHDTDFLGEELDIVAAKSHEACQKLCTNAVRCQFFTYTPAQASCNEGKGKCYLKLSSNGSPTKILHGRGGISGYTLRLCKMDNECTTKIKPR

In the next assay the target is human plasma kallikrein (Homo sapiens (Human), UniProt P03952). Description: Kallikrein inhibition assay (FLINT) utilizing a quenched AMC peptide substrate. Particulars: 30 min preincubation, kinetic reads over 30 min, Z-Gly-Pro-Arg-AMC substrate 50 μM; read-out: Kallikrein Kin Inh IC50. It is filed as biochemical. The essentials: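 Fluorogenic Z-Gly-Pro-Arg-AMC cleavage (50 μM substrate, 2 nM kallikrein, Tris pH 7.5, CaCl2, BSA, CHAPS, 2% DMSO) read kinetically at 340/440 nm for 30 min after 30-min compound pre-incubation. Compounds in 11-point 3-fold series from 1 μM; percent inhibition fitted to four-parameter equation for IC50.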
Sequence of human plasma kallikrein (P03952 391-638): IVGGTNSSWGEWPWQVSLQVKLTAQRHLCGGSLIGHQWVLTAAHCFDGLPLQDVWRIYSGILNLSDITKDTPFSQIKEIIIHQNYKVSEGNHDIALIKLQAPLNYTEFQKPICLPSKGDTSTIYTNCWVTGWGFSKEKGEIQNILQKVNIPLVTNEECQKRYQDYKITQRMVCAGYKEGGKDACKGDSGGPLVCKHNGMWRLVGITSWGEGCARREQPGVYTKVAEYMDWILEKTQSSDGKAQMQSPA
Sequence of human plasma kallikrein (P03952 20-390 partner): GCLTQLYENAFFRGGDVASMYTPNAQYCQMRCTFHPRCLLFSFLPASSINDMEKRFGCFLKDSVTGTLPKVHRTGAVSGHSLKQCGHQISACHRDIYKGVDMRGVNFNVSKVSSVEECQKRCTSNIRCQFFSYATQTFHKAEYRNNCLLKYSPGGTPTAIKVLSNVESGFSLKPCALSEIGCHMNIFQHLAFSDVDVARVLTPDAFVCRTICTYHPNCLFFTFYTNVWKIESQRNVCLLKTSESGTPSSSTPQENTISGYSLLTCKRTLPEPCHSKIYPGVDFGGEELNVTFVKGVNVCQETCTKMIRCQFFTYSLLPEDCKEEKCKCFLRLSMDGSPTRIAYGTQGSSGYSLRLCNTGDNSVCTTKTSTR

[1] abbreviates: 5Fam-KLTRAETV-K5Tamra substrate 15 μM.
The mark [2] stands for this setting: 5Fam-[…]-K5Tamra substrate 15 μM.

pIC50: −log10 of the molar value. Where two headings read alike, the source gives them in different places.

`C[C@@H](O)c1nccc(-c2cnc([C@@H]3CC[C@@H]4CC(c5c(-n6cnnn6)ccc(Cl)c5F)=CC(=O)N43)[nH]2)c1F` [Example 185, (3S,8aR)-7-(3-chloro-2-fluoro-6-(1H-tetrazol-1-yl)phenyl)-3-(5-(3-fluoro-2-((R)-1-hydroxyethyl)pyridin-4-yl)-1H-imidazol-2-yl)-2,3,8,8a-tetrahydroindolizin-5(1H)-one]: the negative logarithm of the IC50 (pIC50) on Factor XIa (setting [1]) was 8.19; at human plasma kallikrein, 7.47.
Regarding `C[C@H](O)c1nccc(-c2cnc([C@@H]3CC[C@@H]4CC(c5c(-n6cnnn6)ccc(Cl)c5F)=CC(=O)N43)[nH]2)c1F` [Example 186, (3S,8aR)-7-(3-chloro-2-fluoro-6-(1H-tetrazol-1-yl)phenyl)-3-(5-(3-fluoro-2-((S)-1-hydroxyethyl)pyridin-4-yl)-1H-imidazol-2-yl)-2,3,8,8a-tetrahydroindolizin-5(1H)-one], the negative-log IC50 (pIC50) is 8.34 on Factor XIa (setting [1]) and 7.45 on human plasma kallikrein.
The corresponding values for `O=C1C=C(c2c(-n3cnnn3)ccc(Cl)c2F)C[C@H]2CC[C@H](c3ncc(-c4ccnc(N5CCC[C@H](O)C5)c4F)[nH]3)N12` [Example 188, (3R,8aR)-7-(3-chloro-2-fluoro-6-(1H-tetrazol-1-yl)phenyl)-3-(5-(3-fluoro-2-((S)-3-hydroxypiperidin-1-yl)pyridin-4-yl)-1H-imidazol-2-yl)-2,3,8,8a-tetrahydroindolizin-5(1H)-one] are 7.76 and 8.11.
In the case of `[2H]C([2H])(O)c1nccc(-c2cnc([C@@H]3CCC4CC(c5c(-n6cnnn6)ccc(Cl)c5F)=CC(=O)N43)[nH]2)c1Cl` (stereo partly drawn) [Example 189, (3S)-3-(5-(3-chloro-2-(hydroxymethyl-d2)pyridin-4-yl)-1H-imidazol-2-yl)-7-(3-chloro-2-fluoro-6-(1H-tetrazol-1-yl)phenyl)-2,3,8,8a-tetrahydroindolizin-5(1H)-one], the negative logarithm of the IC50 (pIC50) was 8.74 at Factor XIa (setting [2]) and 7.78 at human plasma kallikrein.
On to `CC(C)(O)COc1nccc(-c2c[nH]c([C@@H]3CC[C@@H]4CC(c5c(-n6cnnn6)ccc(Cl)c5F)=CC(=O)N43)n2)c1F` [Example 190], for which the figures for the negative logarithm of the IC50 (pIC50) on Factor XIa (setting [1]) and on human plasma kallikrein were 8.92 and 8.03, respectively.
Turning to `CC(C)(O)COc1nccc(-c2c[nH]c([C@@H]3CC[C@@H]4CC(c5c(-n6cc(C(F)(F)F)nn6)ccc(Cl)c5F)=CC(=O)N43)n2)c1F` [Example 191, (3S,8aR)-7-(3-Chloro-2-fluoro-6-(4-(trifluoromethyl)-1H-1,2,3-triazol-1-yl)phenyl)-3-(4-(3-fluoro-2-(2-hydroxy-2-methylpropoxy)pyridin-4-yl)-1H-imidazol-2-yl)-2,3,8,8a-tetrahydroindolizin-5(1H)-one], the pIC50 at Factor XIa (setting [2]) was 8.42; at human plasma kallikrein it was 7.46.
In the case of `CS(=O)(=O)NC(=O)c1sc(-c2c[nH]c(C3CC[C@@H]4CC(c5c(-n6cc(C(F)(F)F)nn6)ccc(Cl)c5F)=CC(=O)N34)n2)cc1F` (stereo partly drawn) [Example 192, 5-(2-((8aR)-7-(3-chloro-2-fluoro-6-(4-(trifluoromethyl)-1H-1,2,3-triazol-1-yl)phenyl)-5-oxo-1,2,3,5,8,8a-hexahydroindolizin-3-yl)-1H-imidazol-4-yl)-3-fluoro-N-(methylsulfonyl)thiophene-2-carboxamide], the negative-log IC50 (pIC50) is 8.27 at Factor XIa (setting [2]) and 7.53 on human plasma kallikrein.
For `O=C(O)c1ccc(-c2cnc([C@@H]3CCC4CC(c5c(-n6cc(Cl)nn6)ccc(Cl)c5F)=CC(=O)N43)[nH]2)s1` (stereo partly drawn) [Example 193, 5-(2-((3S)-7-(3-chloro-6-(4-chloro-1H-1,2,3-triazol-1-yl)-2-fluorophenyl)-5-oxo-1,2,3,5,8,8a-hexahydroindolizin-3-yl)-1H-imidazol-4-yl)thiophene-2-carboxylic acid], the negative logarithm of the IC50 (pIC50) on Factor XIa (setting [1]) was 9.40; on human plasma kallikrein it was 7.84.
The matching figures for `NC(=O)c1ccc(-c2cnc([C@@H]3CC[C@@H]4CC(c5c(-n6cnnn6)ccc(Cl)c5F)=CC(=O)N43)[nH]2)c(F)c1` [Example 196, 4-(2-((3S,8aR)-7-(3-chloro-2-fluoro-6-(1H-tetrazol-1-yl)phenyl)-5-oxo-1,2,3,5,8,8a-hexahydroindolizin-3-yl)-1H-imidazol-4-yl)-3-fluorobenzamide]: 9.22 and 8.47.
Regarding `NC(=O)c1ccc(-c2c[nH]c([C@@H]3CC[C@H]4CC(c5c(-n6cnnn6)ccc(Cl)c5F)=CC(=O)N43)n2)cc1F` [Example 198, 4-(2-((3S,8aS)-7-(3-chloro-2-fluoro-6-(1H-tetrazol-1-yl)phenyl)-5-oxo-1,2,3,5,8,8a-hexahydroindolizin-3-yl)-1H-imidazol-4-yl)-2-fluorobenzamide], the pIC50 on Factor XIa (setting [2]) is 7.52; on human plasma kallikrein, 7.84.
For the molecule `O=C1C=C(c2c(-n3cnnn3)ccc(Cl)c2F)CC2CC[C@@H](c3nc(Cl)c(-c4cc[nH]c(=O)c4)[nH]3)N12` (stereo partly drawn) [Example 199, (3S)-7-(3-chloro-2-fluoro-6-(1H-tetrazol-1-yl)phenyl)-3-(4 chloro-5-(2-oxo-1,2-dihydropyridin-4-yl)-1H-imidazol-2-yl)-2,3,8,8a-tetrahydroindolizin-5(1H)-one], the negative logarithm of the IC50 (pIC50) on Factor XIa (setting [1]) was 8.89; on human plasma kallikrein, 7.81.
For `O=C1C=C(c2c(-n3cc(Cl)nn3)ccc(Cl)c2F)C[C@H]2CC[C@@H](c3nc(-c4cc[nH]c(=O)c4F)c[nH]3)N12` [Example 200, (3S,8aR)-7-(3-chloro-6-(4-chloro-1H-1,2,3-triazol-1-yl)-2-fluorophenyl)-3-(4-(3-fluoro-2-oxo-1,2-dihydropyridin-4-yl)-1H-imidazol-2-yl)-2,3,8,8a-tetrahydroindolizin-5(1H)-one], the values for the pIC50 at Factor XIa (setting [1]) and at human plasma kallikrein were 8.36 and 7.61, respectively.
The corresponding values for `Nc1noc2ccc(-c3cnc([C@@H]4CC[C@@H]5CC(c6c(-n7cnnn7)ccc(Cl)c6F)=CC(=O)N54)[nH]3)cc12` [Example 201, (3S,8aR)-3-(5-(3-aminobenzo[d]isoxazol-5-yl)-1H-imidazol-2-yl)-7-(3-chloro-2-fluoro-6-(1H-tetrazol-1-yl)phenyl)-2,3,8,8a-tetrahydroindolizin-5(1H)-one] are 8.04 and 8.16.
The matching figures for `NC(=O)c1ccc(-c2nc([C@@H]3CC[C@H]4CC(c5c(-n6cc(C(F)(F)F)nn6)ccc(Cl)c5F)=CC(=O)N43)[nH]c2Cl)s1` [Example 202, 5-(5-Chloro-2-((3S,8aS)-7-(3-chloro-2-fluoro-6-(4-(trifluoromethyl)-1H-1,2,3-triazol-1-yl)phenyl)-5-oxo-1,2,3,5,8,8a-hexahydroindolizin-3-yl)-1H-imidazol-4-yl)thiophene-2-carboxamide]: 9.22 and 8.82.
As to `NC(=O)c1ccc(-c2nc([C@@H]3CC[C@@H]4CC(c5c(-n6cc(C(F)(F)F)nn6)ccc(Cl)c5F)=CC(=O)N43)[nH]c2Cl)s1` [Example 203, 5-(5-Chloro-2-((3S,8aR)-7-(3-chloro-2-fluoro-6-(4-(trifluoromethyl)-1H-1,2,3-triazol-1-yl)phenyl)-5-oxo-1,2,3,5,8,8a-hexahydroindolizin-3-yl)-1H-imidazol-4-yl)thiophene-2-carboxamide], the pIC50 at Factor XIa (setting [1]) is 9.05; on human plasma kallikrein it was 8.60.
Regarding `NC(=O)c1cc(-c2cnc([C@@H]3CC[C@@H]4CC(c5c(-n6cc(C(F)(F)F)nn6)ccc(Cl)c5F)=CC(=O)N43)[nH]2)ccn1` [Example 204, 4-(2-((3S,8aR)-7-(3-Chloro-2-fluoro-6-(4-(trifluoromethyl)-1H-1,2,3-triazol-1-yl)phenyl)-5-oxo-1,2,3,5,8,8a-hexahydroindolizin-3-yl)-1H-imidazol-5-yl)picolinamide], the results for the negative-log IC50 (pIC50) at Factor XIa (setting [1]) and on human plasma kallikrein were 7.54 and 7.61, respectively.
`NC(=O)c1ncc(-c2c[nH]c([C@@H]3CC[C@@H]4CC(c5c(-n6cnnn6)ccc(Cl)c5F)=CC(=O)N43)n2)s1` [Example 205, 5-(2-((3S,8aR)-7-(3-Chloro-2-fluoro-6-(1H-tetrazol-1-yl)phenyl)-5-oxo-1,2,3,5,8,8a-hexahydroindolizin-3-yl)-1H-imidazol-4-yl)thiazole-2-carboxamide]: the negative logarithm of the IC50 (pIC50) on Factor XIa (setting [1]) was 8.48; on human plasma kallikrein, 7.90.
`NC(=O)c1ccc(-c2cnc([C@@H]3CC[C@@H]4CC(c5c(-n6cc(Cl)nn6)ccc(Cl)c5F)=CC(=O)N43)[nH]2)s1` [Example 207, 5-(2-((3S,8aR)-7-(3-Chloro-6-(4-chloro-1H-1,2,3-triazol-1-yl)-2-fluorophenyl)-5-oxo-1,2,3,5,8,8a-hexahydroindolizin-3-yl)-1H-imidazol-5-yl)thiophene-2-carboxamide]: the results for the pIC50 at Factor XIa (setting [1]) and at human plasma kallikrein were 8.60 and 8.11, respectively.
The matching figures for `NC(=O)c1ncc(-c2cnc([C@@H]3CC[C@@H]4CC(c5c(-n6cc(Cl)nn6)ccc(Cl)c5F)=CC(=O)N43)[nH]2)s1` [Example 208, 5-(2-((3S,8aR)-7-(3-Chloro-6-(4-chloro-1H-1,2,3-triazol-1-yl)-2-fluorophenyl)-5-oxo-1,2,3,5,8,8a-hexahydroindolizin-3-yl)-1H-imidazol-5-yl)thiazole-2-carboxamide]: 8.34 and 8.11.
For `NC(=O)c1ccc(-c2nc([C@@H]3CC[C@@H]4CC(c5c(-n6cnnn6)ccc(Cl)c5F)=CC(=O)N43)[nH]c2Cl)s1` [Example 211, 5-(5-Chloro-2-((3S,8aR)-7-(3-chloro-2-fluoro-6-(1H-tetrazol-1-yl)phenyl)-5-oxo-1,2,3,5,8,8a-hexahydroindolizin-3-yl)-1H-imidazol-4-yl)thiophene-2-carboxamide], the pIC50 on Factor XIa (setting [2]) is 9.70; on human plasma kallikrein, 9.10.
